Assay results from the supplement of paper PMC11451515.

Test system: NOMO1
Assay: cell viability relative to DMSO control; higher = less cytotoxic
Details: 48 h
Procedure, shortened: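 Viability is a per-plate percentage relative to DMSO wells, with cell-free wells as background. CellTiter-Glo One luminescence was read after 48 h at 37°C on 1536-well plates (5 μl) of NOMO1 or SEM (500 cells/well) or P12-Ichikawa (1000 cells/well) leukemia cells. The cells had been adapted for at least four passages in each medium and pin-dosed with library compounds in DMSO from 47 μM to 0.79 nM in 11 threefold steps.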

[1] = HPLM + 10% dialyzed FBS, 0.000781 µM
[2] = HPLM + 10% dialyzed FBS, 0.00234 µM
[3] = HPLM + 10% dialyzed FBS, 0.00702 µM
[4] = HPLM + 10% dialyzed FBS, 0.0211 µM
[5] = HPLM + 10% dialyzed FBS, 0.0632 µM
[6] = HPLM + 10% dialyzed FBS, 0.19 µM
[7] = HPLM + 10% dialyzed FBS, 0.569 µM
[8] = HPLM + 10% dialyzed FBS, 1.71 µM
[9] = HPLM + 10% dialyzed FBS, 5.12 µM
[10] = HPLM + 10% dialyzed FBS, 15.4 µM
[11] = HPLM + 10% dialyzed FBS, 46.1 µM
[12] = RPMI 5 mM glucose + 10% FBS, 0.000781 µM
[13] = RPMI 5 mM glucose + 10% FBS, 0.00234 µM
[14] = RPMI 5 mM glucose + 10% FBS, 0.00702 µM
[15] = RPMI 5 mM glucose + 10% FBS, 0.0211 µM
[16] = RPMI 5 mM glucose + 10% FBS, 0.0632 µM
[17] = RPMI 5 mM glucose + 10% FBS, 0.19 µM
[18] = RPMI 5 mM glucose + 10% FBS, 0.569 µM
[19] = RPMI 5 mM glucose + 10% FBS, 1.71 µM
[20] = RPMI 5 mM glucose + 10% FBS, 5.12 µM
[21] = RPMI 5 mM glucose + 10% FBS, 15.4 µM
[22] = RPMI 5 mM glucose + 10% FBS, 46.1 µM
[23] = RPMI 5 mM glucose + 10% dialyzed FBS, 0.000781 µM
[24] = RPMI 5 mM glucose + 10% dialyzed FBS, 0.00234 µM
[25] = RPMI 5 mM glucose + 10% dialyzed FBS, 0.00702 µM
[26] = RPMI 5 mM glucose + 10% dialyzed FBS, 0.0211 µM
[27] = RPMI 5 mM glucose + 10% dialyzed FBS, 0.0632 µM
[28] = RPMI 5 mM glucose + 10% dialyzed FBS, 0.19 µM
[29] = RPMI 5 mM glucose + 10% dialyzed FBS, 0.569 µM
[30] = RPMI 5 mM glucose + 10% dialyzed FBS, 1.71 µM
[31] = RPMI 5 mM glucose + 10% dialyzed FBS, 5.12 µM
[32] = RPMI 5 mM glucose + 10% dialyzed FBS, 15.4 µM
[33] = RPMI 5 mM glucose + 10% dialyzed FBS, 46.1 µM

SMILES | cell viability [1] | cell viability [2] | cell viability [3] | cell viability [4] | cell viability [5] | cell viability [6] | cell viability [7] | cell viability [8] | cell viability [9] | cell viability [10] | cell viability [11] | cell viability [12] | cell viability [13] | cell viability [14] | cell viability [15] | cell viability [16] | cell viability [17] | cell viability [18] | cell viability [19] | cell viability [20] | cell viability [21] | cell viability [22] | cell viability [23] | cell viability [24] | cell viability [25] | cell viability [26] | cell viability [27] | cell viability [28] | cell viability [29] | cell viability [30] | cell viability [31] | cell viability [32] | cell viability [33]
COc1ccc(CCC(=O)Nc2nc3ccc(Cl)cc3s2)cc1OC | 120% | 106% | 111% | 135% | 122% | 126% | 123% | 101% | 106% | 122% | 86.2% | 107% | 104% | 113% | 105% | 122% | 117% | 113% | 94.4% | 105% | 100% | 96.6% | 114% | 99.3% | 119% | 108% | 120% | 110% | 106% | 102% | 104% | 98.2% | 91.2%
CC(C)[C@@H](N(CCCN)C(=O)C1=CC=C(C)C=C1)C/2=C(\CC3=CC=CC=C3)C(=O)C4=C(O2)C=C(Cl)C=C4 | 47.8% | 38.1% | 34.7% | 35.9% | 40.9% | 45.8% | 34.9% | 36.3% | 32.5% | 40.7% | 4.73% | 20.1% | 26.5% | 29% | 26.4% | 21.9% | 29% | 21.1% | 23.9% | 27.2% | 31.7% | 7.48% | 48.7% | 34.7% | 29.5% | 30.9% | 35.1% | 34.6% | 27.2% | 32.8% | 29.6% | 33.5% | 5.92%
Cl.Cl.Fc1ccc(C(OCCN2CCN(CCCc3ccccc3)CC2)c2ccc(F)cc2)cc1 | 120% | 113% | 127% | 125% | 139% | 123% | 127% | 130% | 104% | 93.1% | 11.3% | 119% | 116% | 116% | 119% | 111% | 109% | 117% | 113% | 108% | 116% | 18.5% | 113% | 129% | 113% | 126% | 123% | 135% | 112% | 118% | 122% | 96.4% | 12.9%
c1cc(OCCN2CCCCC2)cc(-c2n[nH]c3ccc(-c4nc[nH]n4)cc23)c1 | 116% | 120% | 129% | 127% | 137% | 103% | 127% | 127% | 114% | 122% | 100% | 115% | 115% | 113% | 105% | 103% | 122% | 112% | 111% | 103% | 104% | 109% | 99.5% | 97.1% | 101% | 108% | 101% | 109% | 114% | 105% | 111% | 101% | 109%
CC1OC(OC/2=C(/OC3=C(C(=CC(=C3)O)O)C2=O)C4=CC=C(O)C=C4)C(O)C(OC(C)=O)C1OC(C)=O (stereo not given) | 119% | 109% | 137% | 130% | 111% | 110% | 112% | 112% | 120% | 101% | 78.9% | 120% | 116% | 110% | 100% | 117% | 111% | 96.8% | 96.9% | 103% | 94.3% | 68.9% | 96.7% | 108% | 109% | 111% | 112% | 114% | 118% | 104% | 111% | 99.2% | 77.2%
COc1ccc2cccc(CCNC(C)=O)c2c1 | 111% | 114% | 95.7% | 123% | 104% | 87.9% | 122% | 104% | 101% | 89.7% | 85% | 90.8% | 91.6% | 86.5% | 92.9% | 84.7% | 84.6% | 85.6% | 94.7% | 83.1% | 83.2% | 80.1% | 94.7% | 96.6% | 105% | 82.5% | 91.3% | 97.4% | 97.2% | 90.2% | 86% | 93.7% | 79.6%
CCCn1c(=O)c2[nH]c(C34CC5CC3C[C@@H](C5)C4)nc2n(CCC)c1=O | 105% | 62.9% | 92.9% | 112% | 96.2% | 125% | 104% | 105% | 107% | 99.5% | 114% | 90.5% | 92.6% | 102% | 96.5% | 87.4% | 91.5% | 86.5% | 97.2% | 90.3% | 89.9% | 95.5% | 99% | 89.2% | 92.9% | 95.5% | 107% | 98.2% | 94.3% | 95.6% | 101% | 94.8% | 100%
c1ccc2c(Oc3nc(Nc4ccc(N5CCOCC5)cc4)c4ncn(C5CCCCC5)c4n3)cccc2c1 | – | – | – | – | – | – | – | – | – | – | – | 113% | 117% | 129% | 127% | 126% | 133% | 131% | 149% | 132% | 153% | 136% | 102% | 121% | 126% | 143% | 125% | 146% | 139% | 127% | 123% | 124% | 135%
CNC(=O)c1cc(Oc2ccc(NC(=O)Nc3cc(C(C)(C)C)nn3-c3ccc4ncccc4c3)c(F)c2)ccn1 | 123% | 121% | 121% | 128% | 127% | 170% | 135% | 155% | 157% | 156% | 122% | – | – | – | – | – | – | – | – | – | – | – | 119% | 124% | 125% | 140% | 151% | 154% | 160% | 158% | 155% | 164% | 123%
O=C1c2cccc(O)c2C(=O)c2c(O)cc(CO)cc21 | 89.5% | 109% | 87.5% | 89.8% | 98.5% | 81.8% | 82.5% | 86.5% | 81.9% | 75.8% | 76.8% | 96.8% | 92.5% | 92.1% | 91.9% | 87.1% | 88.3% | 90.6% | 92.8% | 81.9% | 85.5% | 78.9% | 97.8% | 106% | 104% | 95.4% | 100% | 93.1% | 102% | 79.7% | 85.2% | 94.5% | 94.3%
COc1cc2nc(-c3ccc(N4CCN(C)CC4)cc3)nc(NCCN3CCOCC3)c2cc1OC | 115% | 112% | 110% | 125% | 113% | 97.9% | 48.8% | 35% | 22.6% | 18.8% | 1.8% | 102% | 103% | 99% | 94.5% | 98.7% | 100% | 84% | 47% | 18.1% | 9.07% | 2.08% | 114% | 111% | 103% | 107% | 111% | 95% | 63.7% | 28.3% | 11.1% | 7.69% | 1.71%
O=C(NC1CC1)c1cccc(-c2ccc3c(NC(=O)C4CC4)n[nH]c3c2)c1 | 101% | 109% | 117% | 121% | 119% | 109% | 119% | 118% | 122% | 87.6% | 38.3% | 129% | 113% | 122% | 139% | 125% | 115% | 111% | 112% | 123% | 98.7% | 20.2% | 118% | 124% | 123% | 130% | 124% | 129% | 110% | 122% | 132% | 99.7% | 35.3%
N/C(=N\C(=O)c1nc(Cl)c(N)nc1N)NCc1ccccc1 | 81% | 99.5% | 90.7% | 118% | 108% | 108% | 109% | 109% | 97.6% | 76.2% | 36.9% | 80.5% | 92.8% | 83.7% | 88.3% | 93.5% | 89% | 99% | 87.8% | 92.8% | 72.4% | 28.5% | 83.1% | 97% | 96.2% | 90.8% | 104% | 100% | 107% | 111% | 87.4% | 84.2% | 49.1%
CN(C)[C@H]\1[C@@H]2[C@@H](O)[C@@H]\3C(=C)C4=C(C(=CC=C4)O)C(=O)C3=C(\O)[C@@]2(O)C(=O)\C(=C1O)C(N)=O | 130% | 120% | 122% | 128% | 135% | 110% | 111% | 127% | 103% | 107% | 121% | – | – | – | – | – | – | – | – | – | – | – | 127% | 119% | 121% | 121% | 116% | 112% | 121% | 125% | 111% | 124% | 123%
Cc1ccccc1C(C(=O)NC1CCCCC1)N(C(=O)CNc1ccc(C#N)cc1)c1cccc(F)c1 (stereo not given) | 103% | 111% | 115% | 106% | 98.3% | 111% | 112% | 99.4% | 114% | 84.2% | 82.8% | 77.2% | 88.5% | 94.5% | 87.7% | 103% | 94% | 93.7% | 100% | 89.6% | 90.1% | 87.3% | 71.9% | 110% | 140% | 142% | 98.5% | 84.7% | 88.2% | 70.1% | 80.3% | 97% | 76.9%
C[C@@H]1CN(CC(=O)N2CC(C)(C)c3ncc(Cc4ccc(F)cc4)cc32)[C@@H](CN2CCOC[C@H]2C)CN1 | 100% | 117% | 145% | 112% | 129% | 114% | 112% | 103% | 109% | 84% | 46.4% | 96.9% | 120% | 121% | 111% | 117% | 121% | 102% | 109% | 103% | 95.3% | 91.4% | 95.4% | 119% | 117% | 119% | 111% | 114% | 111% | 106% | 105% | 98.2% | 69.3%
